Laboratory results taken from patent US20140271573A1, “PHARMACO-CELLULAR THERAPEUTIC METHOD FOR THE TREATMENT OF MUSCULAR DYSTROPHIES” (PONTIFICIA UNIVERSIDAD CATÓLICA DE CHILE, priority 2013, published 2014).
“Also recorded” adds a separate entry of the source.

Assays:
CTGF = CTGF mRNA levels in tibialis anterior muscle of exercised mdx mice, RT-qPCR; assay type: in vivo, mouse; conditions: 1 mg/kg i.p. 3 times per week for 3 months, vs vehicle
Procedure: (§1) FIG. 3. Andrographolide modulates CTGF action in vivo. A) To augment the extent of muscle fibrosis, 3 months old mdx mice were subjected to an exercise protocol for 3 months. Along this period one group was treated with 1 mg/kg andrographolide or vehicle (i.p. injections 3 time per week, 4 animal per group). CTGF mRNA levels, a downstream TGF-β1 pro-fibrotic mediator) were determined in tibialis anterior muscle from Wild type (WT), Vehicle-Treated mdx and andrographolide-treated mdx mice by RT-qPCR using GAPDH as reference gene. Values correspond to the mean of dCT value±SD of three independent experiments, using four mice for each experimental condition and normalized to WT levels (*, P<0.05 relative to WT mice; #, P<0.05 relative to Vehicle-treated mdx mice). B) Detection of macrophages (F4/80 positive cells) through immunohistochemistry analysis in cryosections of tibialis anterior muscle from andrographolide-treated WT mice that overexpress CTGF by adenovirus (adv CTGF) infection.
(§2) Control or mdx (12 weeks old) male mice of C57BL/10 ScSn strain were studied. The animals were kept at room temperature with a […] night-day cycle and fed with pellets and water ad libitum. Experimental exercise was performed for running the mice in a treadmill for three times per week, 30 minutes each time at 12 m/min during 3 or 4 months (De Luca et al., 2005; De Luca et al., 2003). […]

MES-13 cells = conditions: cited from earlier work
mdx mice [1] = assay: Hematoxylin and eosin histology of tibialis anterior muscle of mdx mice; assay type: in vivo, mouse; conditions: exercised mdx mice, 1 mg/kg i.p. 3 times per week for 3 months, vs vehicle
Procedure: (§3) FIG. 4. Andrographolide reduced skeletal muscle damage in mdx mice. To augment the extent of muscle fibrosis, 3 months old mdx mice were subjected to an exercise protocol for 3 months. Along this period one group was treated with 1 mg/kg andrographolide or vehicle (i.p. injections 3 time per week, 6 animal per group). […] B) Evans blue dye uptake in tibialis anterior muscle fibers from wild-type (WT), Vehicle-treated mdx and andrographolide-treated mdx mice. Nuclei were labeled with Hoechst. Mice were injected i.p. with 1% Evans blue dye 24 hours before muscle fixation. Bar corresponds to 200 μm. […] Values are expressed as mean±SD of three independent experiments, using eight mice for each experimental condition. (*, P<0.05 relative to WT mice; #, P<0.05 relative to Vehicle-treated mdx mice).
as §2
Architecture and histology were detected by hematoxylin-eosin (H&E) stain in transverse sections of muscle (Morales et al., 2011).

mdx mice [2] = assay: Serum creatine kinase (CK) measurement in mdx mice; assay type: in vivo, mouse; conditions: exercised mdx mice, 1 mg/kg i.p. 3 times per week for 3 months, vs vehicle
Procedure: as §3
Control or mdx (12 weeks old) male mice of C57BL/10 ScSn strain were studied. The animals were kept at room temperature with a […] night-day cycle and fed with pellets and water ad libitum. […]
Mice were anesthetized by isofluorane gas, and blood was obtained from the periorbital vascular plexus directly into microhematocrit tubes (70 μl, Fisher Scientific). […] Serum CK was measured by enzymatic system (Valtek, Chile) according to the manufacturer instructions) (Osses and Brandan, 2002).

mdx mice [3] = assay: Migration of DiI-labeled tendon fibroblasts injected into tibialis anterior of mdx mice; assay type: in vivo, mouse; conditions: mdx mice pre-treated 1 mg/Kg, tendon fibroblasts injected one week after treatment, analysed after one month, vs vehicle
Procedure: FIG. 7. Andrographolide increases cell migration through fibrosis inhibition. A) Migration of DiI-labeled tendon fibroblast cells after injection into the tibialis anterior of 7-month-old mdx mice (3 months old mdx mice exercised for four months). […] B) Quantitative analysis of the spreading DiI-labeled tendon fibroblast cells was calculated by counting DiI-labeled cells in 200 μm×200 μm squares from three non-serial transverse sections for three mice per group.
3 month old mdx mice were exercised for 4 months and treated with 1 mg/Kg andrographolide or Vehicle. One week after the treatment, mice were anesthetized with an intramuscular injection of physiologic saline (10 ml kg^−1) containing ketamine (5 mg ml^−1) and xylazine (1 mg ml^−1) and then injected with approximately 5×10^5 tendon fibroblasts into the tibialis anterior muscle via a 0.20-mm diameter needle inserted along the cranio-caudal axis of the muscle as previously described (Gargioli et al., 2008). Fibroblasts were previously labeled with 2 mMDiI according to the protocol supplied by the manufacturer (Molecular Probes). One month after the injection, mice were sacrificed for morphological analyses.

[4] = system: WT mice that overexpress CTGF; assay: Macrophages (F4/80 positive cells) in tibialis anterior of WT mice overexpressing CTGF by adenovirus; assay type: in vivo, mouse; conditions: CTGF overexpressed by adenovirus
Procedure: as §1
For immunofluorescence, snap-frozen muscles in thawing isopentane were sectioned and cryosections (7 μm) were fixed in 4% paraformaldehyde, blocked 1 hour in 10% goat serum in PBS, incubated for one hour at room temperature with specific antibodies against fibronectin (Sigma, USA), collagen I (Chemicon, USA), F4/80 (abcam, USA), p-Smad2 (abcam, USA) and dystrophin (Santa Cruz, USA). […]

For `C=C1CC[C@@H]2[C@](C)(CO)[C@H](O)CC[C@@]2(C)[C@@H]1C/C=C1/C(=O)OC[C@H]1O` [andrographolide], the “CTGF expression (mRNA) in mdx mice” value (CTGF) is listed as “reduced”, the “phenotypes indicating diabetic nephropathy in MES-13 cells” value (MES-13 cells; MES-13 cells) is listed as “reduces” and the “antioxidant ability in a cellular environment” value (MES-13 cells) is listed as “do not have antioxidant ability”. The intracellular oxidative states (MES-13 cells; high glucose cultured MES-13 cells) was “reduced”, the “damaged areas in muscle, hematoxylin and eosin staining” value (mdx mice [1]) was “striking smaller muscle damaged areas; also recorded: prevented the increase of damaged areas” and the “serum CK levels” value (mdx mice [2]) was “significant reduction; also recorded: decreased”. For the same molecule, the “DiI-labeled cell distribution in muscle” value (mdx mice [3]) was “distributed more homogenously; also recorded: more homogenous” and the “number of F4/80 (macrophage marker) positive cells” value [4] was “reduced”.
